How the values were obtained:
Assay in all cases: relative viability (nuclei count vs DMSO), 5 days (fraction); higher = more cells survive
Nelarabine + Navitoclax = compound: COc1nc(N)nc2c1ncn2[C@@H]1O[C@H](CO)[C@@H](O)[C@@H]1O [Nelarabine] + CC1(C)CCC(c2ccc(Cl)cc2)=C(CN2CCN(c3ccc(C(=O)NS(=O)(=O)c4ccc(N[C@H](CCN5CCOCC5)CSc5ccccc5)c(S(=O)(=O)C(F)(F)F)c4)cc3)CC2)C1 [Navitoclax] (partner 0.5 µM)
Summary of the method: (§1)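 Relative viability was taken as the ratio of nuclei in treated wells to nuclei in vehicle wells. Lung cancer cell lines in 1536-well plates received compounds by pin tool one day after seeding, either one drug alone or a fixed anchor-drug dose plus five library-drug doses (not always all listed) in √10 steps. Nuclei were counted on 4× images after 5 days of treatment, and values are medians of duplicate plates.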

Adavosertib + Trametinib = compound: C=CCn1c(=O)c2cnc(Nc3ccc(N4CCN(C)CC4)cc3)nc2n1-c1cccc(C(C)(C)O)n1 [Adavosertib] + CC(=O)Nc1cccc(-n2c(=O)n(C3CC3)c(=O)c3c(Nc4ccc(I)cc4F)n(C)c(=O)c(C)c32)c1 [Trametinib] (partner 0.02 µM)
Summary of the method: as §1

Adavosertib = compound: C=CCn1c(=O)c2cnc(Nc3ccc(N4CCN(C)CC4)cc3)nc2n1-c1cccc(C(C)(C)O)n1 [Adavosertib]
Summary of the method: (§2)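 Acceptance criteria were a control CV below 25% and at least one doubling per plate. Lung cancer cell lines in 1536-well plates got five library-drug doses (not always all listed) √10 apart by pinning and were left 5 days with no medium change. Viability divides treated-well nuclei by vehicle-well nuclei and is the median across plates. Nuclei were counted by MetaXpress from 4× Hoechst images.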

Nelarabine = compound: COc1nc(N)nc2c1ncn2[C@@H]1O[C@H](CO)[C@@H](O)[C@@H]1O [Nelarabine]
Summary of the method: as §2

Cell Line | relative viability (Nelarabine + Navitoclax; first compound 0.01 µM) | relative viability (Nelarabine + Navitoclax; first compound 0.03162 µM) | relative viability (Nelarabine + Navitoclax; first compound 0.1 µM) | relative viability (Nelarabine + Navitoclax; first compound 0.3162 µM) | relative viability (Nelarabine + Navitoclax; first compound 1 µM) | relative viability (Adavosertib + Trametinib; first compound 0.01 µM) | relative viability (Adavosertib + Trametinib; first compound 0.03162 µM) | relative viability (Adavosertib + Trametinib; first compound 0.1 µM) | relative viability (Adavosertib + Trametinib; first compound 0.3162 µM) | relative viability (Adavosertib; 0.01 µM) | relative viability (Adavosertib; 0.03162 µM) | relative viability (Adavosertib; 0.1 µM) | relative viability (Adavosertib; 0.3162 µM) | relative viability (Nelarabine; 0.01 µM) | relative viability (Nelarabine; 0.03162 µM) | relative viability (Nelarabine; 0.1 µM) | relative viability (Nelarabine; 0.3162 µM) | relative viability (Nelarabine; 1 µM)
NCI-H1437 | 1.38 | 1.16 | 1.09 | 1.05 | 1.03 | 0.546 | 0.545 | 0.484 | 0.414 | 1.02 | 0.912 | 1.03 | 0.981 | 1.21 | 0.989 | 0.994 | 1.04 | 0.918
NCI-H2228 | 1.3 | 1.11 |  | 1.33 | 0.722 |  | 0.498 | 0.465 | 0.404 | 0.994 | 0.996 | 0.946 | 0.616 | 1.17 | 0.991 |  | 1.35 | 0.948
CAL-12T | 1.37 | 1.11 | 1.31 | 1.41 | 1.14 | 0.334 | 0.338 | 0.312 | 0.29 | 0.948 | 1.07 | 1.1 | 0.856 | 1.15 | 1.02 | 0.969 | 0.99 | 1.05
NCI-H1792 | 0.518 |  | 0.931 | 0.685 | 0.396 | 0.378 | 0.505 | 0.448 | 0.42 | 0.749 | 0.915 | 0.75 | 0.895 | 0.973 | 0.928 | 1.16 | 1.06 | 0.855
NCI-H2347 | 0.955 | 0.799 | 0.782 | 0.782 | 0.939 | 0.287 | 0.327 | 0.323 | 0.285 | 1.06 | 1.05 | 1.09 | 0.983 | 1.13 | 0.904 | 1.04 | 1.02 | 1.01
NCI-H3122 | 1.04 | 0.668 |  | 1.04 | 1.05 | 0.201 | 0.198 | 0.272 | 0.227 | 0.987 | 0.95 | 1.04 | 1.03 | 1.1 | 0.929 |  | 1.06 | 1.05
NCI-H1793 | 0.46 | 0.552 | 0.433 | 0.47 | 0.385 | 0.44 | 0.421 | 0.501 | 0.395 | 0.787 | 0.835 | 0.885 | 1.09 | 1.09 | 0.775 | 1.1 | 1.09 | 1
HOP-62 | 1.25 | 1 | 1.06 | 1.08 | 1.11 | 0.357 | 0.406 | 0.356 | 0.384 | 1.03 | 1.1 | 1.08 | 1.18 | 1.02 | 1.02 | 1.06 | 1.01 | 1.01
NCI-H1944 | 1.02 | 0.964 | 1.01 | 0.937 | 0.968 | 0.376 | 0.377 | 0.378 | 0.372 | 0.953 | 0.926 | 0.959 | 0.807 | 1.15 | 0.984 | 1 | 0.987 | 0.869
NCI-H838 | 1.48 | 1.13 | 1.22 | 1.26 | 1.25 | 0.488 | 0.531 | 0.503 | 0.582 | 0.978 | 0.919 | 0.996 | 0.948 | 1.3 | 0.893 | 0.986 | 1.05 | 1.04
ChaGo-K-1 | 1.03 | 1.02 | 1.48 | 0.936 | 1.07 | 0.884 | 0.844 | 0.901 | 0.883 | 0.947 | 0.995 | 1.05 | 0.918 | 1.05 | 0.912 | 0.962 | 0.964 | 0.962
